From ChEMBL document CHEMBL3351906, “Bioactive triterpenoid saponins and phenolic compounds against glioma cells” (Bioorg Med Chem Lett, 2014)
Active and inactive are the calls of the source. No cut-off for these calls is given here.

Tests used:
C6 [1] = experiment: Inhibition of cell proliferation of rat C6 cells assessed as cell viability after 72 hrs by sulforhodamine B assay; type: functional, cell-based; details: C6, 72 h
U-251 [2] = experiment: Induction of apoptosis in human U251 cells assessed as late apoptotic level at 40 uM after 72 hrs by annexin V-FITC/propidium iodide double staining based flow cytometry (reference value: 4.95%); type: functional
U-251 [3] = experiment: Induction of apoptosis in human U251 cells assessed as viable cell level at 40 uM after 72 hrs by annexin V-FITC/propidium iodide double staining based flow cytometry (reference value: 91.04%); type: functional
U-251 [4] = experiment: Inhibition of cell proliferation of human U251 cells assessed as cell viability after 72 hrs by sulforhodamine B assay; type: functional, cell-based; details: U-251, 72 h
U-251 [5] = experiment: Induction of apoptosis in human U251 cells assessed as necrotic cell level at 40 uM after 72 hrs by annexin V-FITC/propidium iodide double staining based flow cytometry (reference value: 2.24%); type: functional
[6] = Inhibition of cell proliferation of human U87MG cells assessed as cell viability after 72 hrs by sulforhodamine B assay; type: functional, cell-based, U-87MG ATCC; details: U-87 MG
U-251 [7] = experiment: Induction of necrosis in human U251 cells at 15 uM after 72 hrs propidium iodide staining based fluorescence microscopy; type: functional, cell-based
C6 [8] = experiment: Induction of necrosis in rat C6 cells at 10 uM after 72 hrs by propidium iodide staining based fluorescence microscopy; type: functional, cell-based
C6 [9] = experiment: Induction of apoptosis in rat C6 cells assessed as nuclear pyknosis at 10 uM after 72 hrs by DAPI staining based fluorescence microscopy; type: functional, cell-based
U-251 [10] = experiment: Inhibition of cell proliferation of human U251 cells assessed as cell viability at 100 uM after 72 hrs by sulforhodamine B assay; type: functional; details: U-251, 72 h, read-out: Activity
U-251 [11] = experiment: Induction of apoptosis in human U251 cells assessed as early apoptotic level at 40 uM after 72 hrs by annexin V-FITC/propidium iodide double staining based flow cytometry (reference value: 1.77%); type: functional
U-251 [12] = experiment: Induction of apoptosis in human U251 cells assessed as nuclear pyknosis at 15 uM after 72 hrs by DAPI staining based fluorescence microscopy; type: functional, cell-based
U-251 [13] = experiment: Induction of apoptosis in human U251 cells assessed as necrotic cell level at 10 uM after 72 hrs by annexin V-FITC/propidium iodide double staining based flow cytometry (reference value: 1.79%); type: functional
U-251 [14] = experiment: Induction of apoptosis in human U251 cells assessed as early apoptotic level at 10 uM after 72 hrs by annexin V-FITC/propidium iodide double staining based flow cytometry (reference value: 0.56%); type: functional
C6 [15] = experiment: Induction of apoptosis in rat C6 cells assessed as late apoptotic level at 6 uM after 72 hrs by annexin V-FITC/propidium iodide double staining based flow cytometry (reference value: 3.68%); type: functional
C6 [16] = experiment: Induction of apoptosis in rat C6 cells assessed as early apoptotic level at 6 uM after 72 hrs by annexin V-FITC/propidium iodide double staining based flow cytometry (reference value: 1.67%); type: functional
U-251 [17] = experiment: Induction of apoptosis in human U251 cells assessed as nuclear pyknosis at 10 uM after 72 hrs by DAPI staining based fluorescence microscopy; type: functional, cell-based
U-251 [18] = experiment: Induction of apoptosis in human U251 cells assessed as viable cell level at 10 uM after 72 hrs by annexin V-FITC/propidium iodide double staining based flow cytometry (reference value: 94.49%); type: functional
C6 [19] = experiment: Induction of apoptosis in rat C6 cells assessed as necrotic cell level at 6 uM after 72 hrs by annexin V-FITC/propidium iodide double staining based flow cytometry (reference value: 1.22%); type: functional
C6 [20] = experiment: Induction of apoptosis in rat C6 cells assessed as viable cell level at 6 uM after 72 hrs by annexin V-FITC/propidium iodide double staining based flow cytometry (reference value: 93.43); type: functional
C6 [21] = experiment: Induction of necrosis in rat C6 cells at 6 uM after 72 hrs by propidium iodide staining based fluorescence microscopy; type: functional, cell-based
U-251 [22] = experiment: Induction of necrosis in human U251 cells at 10 uM after 72 hrs propidium iodide staining based fluorescence microscopy; type: functional, cell-based
C6 [23] = experiment: Induction of apoptosis in rat C6 cells assessed as nuclear pyknosis at 6 uM after 72 hrs by DAPI staining based fluorescence microscopy; type: functional, cell-based
U-251 [24] = experiment: Induction of apoptosis in human U251 cells assessed as late apoptotic level at 10 uM after 72 hrs by annexin V-FITC/propidium iodide double staining based flow cytometry (reference value: 3.16%); type: functional

SMILES: C/C=C(/C)C(=O)O[C@H]1[C@H](O)[C@]2(COC(C)=O)[C@H](O)C[C@]3(C)C(=CC[C@@H]4[C@@]5(C)CC[C@H](O[C@@H]6O[C@H](C(=O)OC)[C@@H](O[C@@H]7O[C@H](CO)[C@@H](O)[C@H](O)[C@H]7O)[C@H](O)[C@H]6O[C@@H]6O[C@H](CO)[C@@H](O)[C@H](O)[C@H]6O)[C@](C)(CO)[C@@H]5CC[C@]43C)[C@@H]2CC1(C)C
- IC50 (C6 [1]): 11 µM
- Activity (U-251 [2]): 26.54%
- Activity (U-251 [3]): 62.1%
- IC50 (U-251 [4]): 15.6 µM
- Activity (U-251 [5]): 4.3%
- IC50 [6]: 8.32 µM
- Activity (U-251 [7]): Active
- Activity (C6 [8]): Active
- Activity (C6 [9]): Active
- viability at 100 µM (U-251 [10]): 22.2%
- Activity (U-251 [11]): 7.06%
- Activity (U-251 [12]): Active

SMILES: C=C[C@@](C)(O)CC/C=C(\C)C(=O)OC[C@H]1O[C@@H](OC(=O)[C@]23CCC(C)(C)C[C@H]2C2=CC[C@@H]4[C@@]5(C)CC[C@H](O[C@@H]6O[C@H](CO[C@@H]7OC[C@H](O)[C@H](O)[C@H]7O[C@@H]7OC[C@@H](O)[C@H](O)[C@H]7O)[C@@H](O)[C@H](O)[C@H]6O)C(C)(C)[C@@H]5CC[C@@]4(C)[C@]2(C)CC3)[C@H](O[C@@H]2O[C@@H](C)[C@H](O[C@@H]3OC[C@@H](O)[C@H](O[C@@H]4OC[C@@H](O)[C@H](O)[C@H]4O)[C@H]3O)[C@@H](O)[C@H]2O)[C@@H](O)[C@@H]1O
- IC50 (C6 [1]): 7.3 µM
- Activity (U-251 [13]): 13.62%
- IC50 (U-251 [4]): 16.9 µM
- Activity (U-251 [14]): 4.12%
- Activity (C6 [15]): 21.37%
- Activity (C6 [16]): 16.73%
- Activity (U-251 [17]): Active
- Activity (U-251 [18]): 64.13%
- Activity (C6 [19]): 21.75%
- IC50 [6]: 14.7 µM
- Activity (C6 [20]): 40.15%
- Activity (C6 [21]): Active
- viability at 100 µM (U-251 [10]): 14.2%
- Activity (U-251 [22]): Active
- Activity (C6 [23]): Active
- Activity (U-251 [24]): 18.13%
